In ChEMBL document CHEMBL4814067, “An optimized analog of antimicrobial peptide Jelleine-1 shows enhanced antimicrobial activity against multidrug resistant P. aeruginosa and negligible toxicity in vitro and in vivo” (Eur J Med Chem, 2021):
Active and inactive are the calls of the source. The calls are words filed in the database; no cut-off is given here.

Key:
Bacillus subtilis = experiment: Antibacterial activity against Bacillus subtilis ATCC 23857 assessed as transparent well by visual inspection after 18 hrs by CLSI based-broth microdilution method; type: functional
[1] = tested on: Staphylococcus epidermidis; experiment: Antibacterial activity against Staphylococcus epidermidis ATCC 12228 assessed as transparent well by visual inspection after 18 hrs by CLSI based-broth microdilution method; type: functional
Escherichia coli [2] = experiment: Antibacterial activity against Escherichia coli ATCC 25922 assessed as transparent well by visual inspection after 18 hrs by CLSI based-broth microdilution method; type: functional
Staphylococcus aureus [3] = experiment: Antibacterial activity against Staphylococcus aureus ATCC 29213 assessed as transparent well by visual inspection after 18 hrs by CLSI based-broth microdilution method; type: functional; settings: C1 ATCC 29213
Enterobacter sp. = experiment: Antibacterial activity against Enterobacter sakazakii ATCC 29544 assessed as transparent well by visual inspection after 18 hrs by CLSI based-broth microdilution method; type: functional
Pseudomonas aeruginosa [4] = experiment: Antibacterial activity against Pseudomonas aeruginosa ATCC 27853 assessed as transparent well by visual inspection after 18 hrs by CLSI based-broth microdilution method; type: functional
[5] = Toxicity in mouse assessed as effect on body weight at 10 to 30 mg/kg, ip measured after 8 days; type: organism-based; settings: in vivo, 192 h, dose 10-30 mg/kg, time 8 day
Pseudomonas aeruginosa [6] = experiment: Antimicrobial activity against multidrug-resistant Pseudomonas aeruginosa infected in peritonitis sepsis mouse model assessed as increase in mouse survival rate at 30 mg/kg, ip measured after 7 days; type: functional, organism-based; settings: time 7.0 day
Staphylococcus aureus [7] = experiment: Antibacterial activity against methicillin resistant Staphylococcus aureus clinical isolate 3 assessed as transparent well by visual inspection after 18 hrs by CLSI based-broth microdilution method; type: functional
[8] = Toxicity in mouse assessed as effect on alanine aminotransferase level at 10 to 30 mg/kg, ip measured after 8 days; type: organism-based; settings: in vivo, 192 h, dose 10-30 mg/kg, time 8 day
Escherichia coli [9] = experiment: Antibacterial activity against ESBL-producing Escherichia coli clinical isolate 4 assessed as transparent well by visual inspection after 18 hrs by CLSI based-broth microdilution method; type: functional
Staphylococcus aureus [10] = experiment: Antibacterial activity against methicillin resistant Staphylococcus aureus clinical isolate 2 assessed as transparent well by visual inspection after 18 hrs by CLSI based-broth microdilution method; type: functional
Staphylococcus aureus [11] = experiment: Antibacterial activity against methicillin resistant Staphylococcus aureus clinical isolate 4 assessed as transparent well by visual inspection after 18 hrs by CLSI based-broth microdilution method; type: functional
[12] = Toxicity in mouse assessed as effect on total albumin level at 10 to 30 mg/kg, ip measured after 8 days; type: organism-based; settings: in vivo, 192 h, dose 10-30 mg/kg, time 8 day
Escherichia coli [13] = experiment: Antibacterial activity against ESBL-producing Escherichia coli clinical isolate 2 assessed as transparent well by visual inspection after 18 hrs by CLSI based-broth microdilution method; type: functional
Escherichia coli [14] = experiment: Bactericidal activity against Escherichia coli assessed as killing effect at 2 times MIC measured at 60 mins by bacterial colony counting assay; type: functional; settings: 1 h
Pseudomonas aeruginosa [15] = experiment: Antimicrobial activity against multidrug-resistant Pseudomonas aeruginosa infected in peritonitis sepsis mouse model assessed as increase in mouse survival rate at 10 mg/kg, ip measured after 3 days; type: functional, organism-based; settings: time 3.0 day
RAW264.7 = experiment: Cytotoxicity against mouse RAW264.7 assessed as reduction in cell viability measured after 24 hrs by MTT assay; type: cell-based; settings: raw264.7, 24 h
Cell membrane [16] = experiment: Induction of outer membrane permeabilization in Escherichia coli using NPN hydrophobic fluorescent probe at 1 to 8 times of MIC measured for 15 mins by multimode reader
Escherichia coli [17] = experiment: Antibacterial activity against ESBL-producing Escherichia coli clinical isolate 5 assessed as transparent well by visual inspection after 18 hrs by CLSI based-broth microdilution method; type: functional
HeLa = experiment: Cytotoxicity against human HeLa cells assessed as reduction in cell viability measured after 24 hrs by MTT assay; type: cell-based
Staphylococcus aureus [18] = experiment: Bactericidal activity against Staphylococcus aureus assessed as killing effect at 1 times MIC measured at 240 mins by bacterial colony counting assay; type: functional, organism-based
Erythrocyte = experiment: Haemolytic activity in human erythrocytes by optical absorption assay; type: ADME, cell-based
Escherichia coli [19] = experiment: Antibacterial activity against ESBL-producing Escherichia coli clinical isolate 1 assessed as transparent well by visual inspection after 18 hrs by CLSI based-broth microdilution method; type: functional
[20] = Toxicity in mouse assessed as effect on aspartate transaminase level at 10 to 30 mg/kg, ip measured after 8 days; type: organism-based; settings: in vivo, 192 h, dose 10-30 mg/kg, time 8 day
Escherichia coli [21] = experiment: Antibacterial activity against ESBL-producing Escherichia coli clinical isolate 3 assessed as transparent well by visual inspection after 18 hrs by CLSI based-broth microdilution method; type: functional
NIH3T3 = experiment: Cytotoxicity against mouse NIH/3T3 assessed as reduction in cell viability measured after 24 hrs by MTT assay; type: cell-based; settings: nih3t3, 24 h
Pseudomonas aeruginosa [22] = experiment: Antibacterial activity against Pseudomonas aeruginosa clinical isolate assessed as transparent well by visual inspection after 18 hrs by CLSI based-broth microdilution method; type: functional
Escherichia coli [23] = experiment: Bactericidal activity against Escherichia coli assessed as killing effect at 1 times MIC measured at 120 mins by bacterial colony counting assay; type: functional, organism-based
Staphylococcus aureus [24] = experiment: Antibacterial activity against methicillin resistant Staphylococcus aureus clinical isolate 1 assessed as transparent well by visual inspection after 18 hrs by CLSI based-broth microdilution method; type: functional; settings: C1
[25] = Toxicity in mouse assessed as effect on total protein level at 10 to 30 mg/kg, ip measured after 8 days; type: organism-based; settings: in vivo, 192 h, dose 10-30 mg/kg, time 8 day
Staphylococcus aureus [26] = experiment: Bactericidal activity against Staphylococcus aureus assessed as killing effect at 2 times MIC measured at 60 mins by bacterial colony counting assay; type: functional; settings: 1 h
Cell membrane [27] = experiment: Induction of inner membrane permeabilization in Escherichia coli ML-35 assessed as increase in ONPG at 1 to 8 times of MIC measured 100 mins by multimode reader
Pseudomonas aeruginosa [28] = experiment: Inhibition of biofilm formation in multidrug-resistant Pseudomonas aeruginosa at 64 uM measured after 24 hrs by crystal violet staining based assay; type: functional
Staphylococcus aureus [29] = experiment: Bactericidal activity against Staphylococcus aureus assessed as killing effect at 1 times MIC measured at 120 mins by bacterial colony counting assay; type: functional, organism-based
Pseudomonas aeruginosa [30] = experiment: Inhibition of biofilm formation in multidrug-resistant Pseudomonas aeruginosa at 256 uM measured after 24 hrs by crystal violet staining based assay; type: functional, organism-based

## H-PFRLSLHL-OH
Bacillus subtilis
  MIC: 16 µM
[1]
  MIC: 34 µM
Escherichia coli [2]
  MIC: 32 µM
Staphylococcus aureus [3]
  MIC: 128 µM
Enterobacter sp.
  MIC: 32 µM
Pseudomonas aeruginosa [4]
  MIC: 32 µM

## H-PFKLKLHL-OH
Bacillus subtilis
  MIC: 32 µM
[1]
  MIC: 32 µM
Escherichia coli [2]
  MIC: 32 µM
Staphylococcus aureus [3]
  MIC: 128 µM
Enterobacter sp.
  MIC: 32 µM
Pseudomonas aeruginosa [4]
  MIC: 32 µM

## H-PWRLRLHL-OH
Bacillus subtilis
  MIC: 8 µM
[1]
  MIC: 16 µM
Escherichia coli [2]
  MIC: 8 µM
Staphylococcus aureus [3]
  MIC: 32 µM
Enterobacter sp.
  MIC: 8 µM
Pseudomonas aeruginosa [4]
  MIC: 32 µM

## H-PWKLSLHL-OH
Bacillus subtilis
  MIC: 16 µM
[1]
  MIC: 32 µM
Escherichia coli [2]
  MIC: 16 µM
Staphylococcus aureus [3]
  MIC: 64 µM
Enterobacter sp.
  MIC: 16 µM
Pseudomonas aeruginosa [4]
  MIC: 16 µM

## H-PWRLSLRL-OH
Bacillus subtilis
  MIC: 8 µM
[1]
  MIC: 16 µM
Escherichia coli [2]
  MIC: 8 µM
Staphylococcus aureus [3]
  MIC: 32 µM
Enterobacter sp.
  MIC: 8 µM
Pseudomonas aeruginosa [4]
  MIC: 8 µM

## H-PWRLRLRL-OH
[5]
  Activity: Non-Toxic
Pseudomonas aeruginosa [6]
  Activity: Active
Staphylococcus aureus [7]
  MIC: 32 µM
Bacillus subtilis
  MIC: 4 µM
[8]
  Activity: Non-Toxic
Escherichia coli [9]
  MIC: 4 µM
Staphylococcus aureus [10]
  MIC: 32 µM
Staphylococcus aureus [11]
  MIC: 32 µM
[12]
  Activity: Non-Toxic
Escherichia coli [13]
  MIC: 4 µM
Escherichia coli [14]
  Activity: 100%
[1]
  MIC: 8 µM
Pseudomonas aeruginosa [15]
  Activity: inactive
Escherichia coli [2]
  MIC: 4 µM
RAW264.7
  Activity: Non-Toxic
Cell membrane [16]
  Activity: Dose-Dependent Effect
Escherichia coli [17]
  MIC: 4 µM
HeLa
  Activity: Non-Toxic
Staphylococcus aureus [18]
  Activity: Active
Erythrocyte
  Activity: Non-Toxic
Staphylococcus aureus [3]
  MIC: 32 µM
Escherichia coli [19]
  MIC: 4 µM
[20]
  Activity: Non-Toxic
Escherichia coli [21]
  MIC: 4 µM
Enterobacter sp.
  MIC: 8 µM
NIH3T3
  Activity: Non-Toxic
Pseudomonas aeruginosa [22]
  MIC: 8 µM
Escherichia coli [23]
  Activity: Active
Staphylococcus aureus [24]
  MIC: 32 µM
[25]
  Activity: Non-Toxic
Staphylococcus aureus [26]
  Activity: 100%
Cell membrane [27]
  Activity: Active
Pseudomonas aeruginosa [4]
  MIC: 8 µM
Pseudomonas aeruginosa [28]
  inhibition at 64 µM: 74.6%

## H-PWRLSLHL-OH
Bacillus subtilis
  MIC: 16 µM
[1]
  MIC: 8 µM
Escherichia coli [2]
  MIC: 16 µM
Staphylococcus aureus [3]
  MIC: 32 µM
Enterobacter sp.
  MIC: 16 µM
Pseudomonas aeruginosa [4]
  MIC: 32 µM

## H-PWKLKLHL-OH
Bacillus subtilis
  MIC: 16 µM
[1]
  MIC: 32 µM
Escherichia coli [2]
  MIC: 16 µM
Staphylococcus aureus [3]
  MIC: 64 µM
Enterobacter sp.
  MIC: 16 µM
Pseudomonas aeruginosa [4]
  MIC: 32 µM

## H-PFRLRLRL-OH
Staphylococcus aureus [7]
  MIC: 64 µM
Bacillus subtilis
  MIC: 8 µM
Escherichia coli [9]
  MIC: 8 µM
Staphylococcus aureus [10]
  MIC: 64 µM
Staphylococcus aureus [11]
  MIC: 64 µM
Escherichia coli [13]
  MIC: 8 µM
Escherichia coli [14]
  Activity: 100%
[1]
  MIC: 16 µM
Escherichia coli [2]
  MIC: 8 µM
Staphylococcus aureus [29]
  Activity: Active
RAW264.7
  Activity: Non-Toxic
Cell membrane [16]
  Activity: Dose-Dependent Effect
Escherichia coli [17]
  MIC: 8 µM
HeLa
  Activity: Non-Toxic
Erythrocyte
  Activity: Non-Toxic
Staphylococcus aureus [3]
  MIC: 64 µM
Escherichia coli [19]
  MIC: 8 µM
Pseudomonas aeruginosa [30]
  inhibition: Active
Escherichia coli [21]
  MIC: 8 µM
Enterobacter sp.
  MIC: 32 µM
NIH3T3
  Activity: Non-Toxic
Pseudomonas aeruginosa [22]
  MIC: 8 µM
Escherichia coli [23]
  Activity: Active
Staphylococcus aureus [24]
  MIC: 64 µM
Staphylococcus aureus [26]
  Activity: 100%
Cell membrane [27]
  Activity: Active
Pseudomonas aeruginosa [4]
  MIC: 8 µM
